Test system: rats subjected to regional myocardial ischaemia and reperfusion
Test: Regional myocardial ischaemia and reperfusion, artesunate and dihydroartemisinin
Assay type: in vivo, Wistar rats
Description: Rats were anaesthetised with thiopentone sodium (Intraval® 120 mg/kg i.p.). Anaesthesia was maintained by supplementary injections of thiopentone sodium as required. The trachea was cannulated and the animals were ventilated with a Harvard ventilator (inspiratory oxygen concentration: 30%; 70 strokes/min, tidal volume: 8-10 ml/kg). Body temperature was maintained at 37±1° C. with the aid of a rectal probe thermometer attached to a homeothermic blanket unit (Harvard Apparatus Ltd., Edenbridge, Kent. U.K.). […] The right jugular vein was then cannulated for the administration of drugs and saline. A para-sternal thoracotomy was then performed, using an Electrosurgery device to cauterize the intercostals arteries before cutting through three ribs. The chest was retracted and pericardium dissected from the heart. The left anterior descending (LAD) coronary artery was isolated and a snare occluder was placed around the LAD. The retractor was then removed and the animal was allowed to stabilise for 15 min.
The occluder was tightened at time 0. After 25 min of LAD-occlusion, the occluder was released to allow reperfusion of the previously ischemic myocardium (2 h). Haemodynamic parameters were continuously monitored. Baseline readings were taken prior to treatment, and, myocardial ischaemia reperfusion (IR) injury. The pressure rate index (PRI), a relative indicator of myocardial oxygen consumption was calculated as a product of the MAP (mmHg) and HR (beats/minute-bpm) and expressed in mm Hg bpm×10^−3.
At the end of the 2 h reperfusion period, the LAD was re-occluded and 1 ml of Evans Blue dye (2% w/v) was injected into the animal, via the jugular vein. The Evans Blue dye stains the tissue it can circulate through, therefore the non-perfused vascular (occluded) tissue remains un-coloured. Each animal was killed with an over-dose of anaesthetic, the heart excised, and excess dye washed off. […] The ischaemic and non-ischaemic tissue was weighed, and the AAR expressed as a percentage of the left ventricle. The tissue from the AAR was cut into small pieces and incubated with p-nitroblue tetrazolium (NBT, 0.5 mg/ml) for 30 min at 37° C. NBT is a reducing agent that reacts with dehydrogenases present in viable (non-infarcted) tissue to produce a dark blue formazan. Infarcted tissue (non-viable) will not have dehydrogenase activity and will therefore fail to stain. The stained tissue was separated from the infarcted tissue, weighed, and the infarct size expressed as a percentage of the AAR.
Sham-operated rats were subjected to surgical procedure without myocardial ischaemia and reperfusion.

[1] = bolus 0.1 mg/kg upon reperfusion, P>0.05 vs Control

## C[C@@H]1CC[C@H]2[C@@H](C)C(O)O[C@H]3O[C@@]4(C)CC[C@@H]1[C@]32OO4 (stereo partly drawn) [dihydroartemisinin, (3R,5aS,6R,8aS,9R,12S,12aR)-decahydro-3,6,9-trimethyl-3,12-epoxy-12H-pyrano[4,3-j]-1,2-benzodioxepin-10-ol]
0.1 mg/kg i.v. bolus upon reperfusion, from 59.8±3.2, P<0.05
  infarct size (percentage of the AAR): 46.5±1.3%
0.1 mg/kg i.v. upon reperfusion, vs control
  Infarct size reduction: 40%
0.1 mg/kg, compared to vehicle treated rats
  area at risk: no significant effect
[1]
  fall in mean arterial blood pressure caused by myocardial ischaemia and reperfusion: did not attenuate
  heart rate: did not have a significant effect

Source: patent publication US9949948B2, “Artemisinin and its derivatives for use in the treatment of trauma haemorrhage and associated conditions” (Queen Mary University of London, priority 2011, dated 2018)
